Laboratory results published in ChEMBL document CHEMBL1909046, “DrugMatrix in vitro pharmacology data”.

How the values were obtained:
[1] = target: C-C chemokine receptor type 2 (Homo sapiens, UniProt P41597); type: cell membranes, Membrane; conditions: cho-k1; also: in other assays of this panel Not Active means under 50% inhibition at 10 µM
[2] = DRUGMATRIX: GABAA, Chloride Channel, TBOB radioligand binding (ligand: [3H] TBOB); type: cell membranes, Rattus norvegicus, Wistar, Cerebral cortex, Membrane; conditions: Not Active = under 50% inhibition at 10 µM
D(3) dopamine receptor = D(3) dopamine receptor (Homo sapiens, UniProt P35462); assay: DRUGMATRIX: Dopamine D3 radioligand binding (ligand: [3H] Spiperone); type: cell membranes, CHO, Membrane
[3] = target: Kappa-type opioid receptor (Homo sapiens, UniProt P41145); assay: DRUGMATRIX: Opiate kappa (OP2, KOP) radioligand binding (ligand: [3H] Diprenorphine); type: cell membranes, HEK293, Membrane; conditions: hek293; Not Active = under 50% inhibition at 10 µM
Cytochrome P450 3A4 = Cytochrome P450 3A4 (Homo sapiens, UniProt P08684); conditions: bti-tn-5b1-4; also: in other assays of this panel Not Active means under 50% inhibition at 10 µM
[4] = DRUGMATRIX: Imidazoline I2, Central radioligand binding (ligand: [3H] Idazoxan); type: cell membranes, Rattus norvegicus, Wistar, Cerebral cortex, Membrane; conditions: Not Active = under 50% inhibition at 10 µM

Sequence of C-C chemokine receptor type 2 (P41597 whole entry): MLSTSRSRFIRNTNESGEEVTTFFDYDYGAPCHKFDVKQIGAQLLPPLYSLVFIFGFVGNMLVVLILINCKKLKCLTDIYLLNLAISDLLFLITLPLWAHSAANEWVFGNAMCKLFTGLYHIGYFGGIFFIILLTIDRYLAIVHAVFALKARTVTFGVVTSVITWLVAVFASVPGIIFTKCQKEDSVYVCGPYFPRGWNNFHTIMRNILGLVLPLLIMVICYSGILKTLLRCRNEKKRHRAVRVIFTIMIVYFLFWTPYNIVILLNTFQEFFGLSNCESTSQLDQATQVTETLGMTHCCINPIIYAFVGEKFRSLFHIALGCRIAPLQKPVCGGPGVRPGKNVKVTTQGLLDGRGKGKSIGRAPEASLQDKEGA
Sequence of Cytochrome P450 3A4 (P08684 whole entry): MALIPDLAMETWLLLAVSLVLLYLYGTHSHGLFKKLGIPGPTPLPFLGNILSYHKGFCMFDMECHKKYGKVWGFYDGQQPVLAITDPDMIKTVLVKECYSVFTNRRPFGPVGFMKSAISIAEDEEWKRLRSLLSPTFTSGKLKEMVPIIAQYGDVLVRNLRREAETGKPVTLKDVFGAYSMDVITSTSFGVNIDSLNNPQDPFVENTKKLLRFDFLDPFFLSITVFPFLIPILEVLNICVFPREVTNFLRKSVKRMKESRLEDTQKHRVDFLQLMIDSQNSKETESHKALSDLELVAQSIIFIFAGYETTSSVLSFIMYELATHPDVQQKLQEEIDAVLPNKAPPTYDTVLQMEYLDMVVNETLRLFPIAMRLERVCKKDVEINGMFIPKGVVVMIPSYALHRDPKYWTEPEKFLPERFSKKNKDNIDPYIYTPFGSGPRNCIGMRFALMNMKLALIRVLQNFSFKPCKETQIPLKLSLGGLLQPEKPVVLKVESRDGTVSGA
Sequence of D(3) dopamine receptor (P35462 whole entry): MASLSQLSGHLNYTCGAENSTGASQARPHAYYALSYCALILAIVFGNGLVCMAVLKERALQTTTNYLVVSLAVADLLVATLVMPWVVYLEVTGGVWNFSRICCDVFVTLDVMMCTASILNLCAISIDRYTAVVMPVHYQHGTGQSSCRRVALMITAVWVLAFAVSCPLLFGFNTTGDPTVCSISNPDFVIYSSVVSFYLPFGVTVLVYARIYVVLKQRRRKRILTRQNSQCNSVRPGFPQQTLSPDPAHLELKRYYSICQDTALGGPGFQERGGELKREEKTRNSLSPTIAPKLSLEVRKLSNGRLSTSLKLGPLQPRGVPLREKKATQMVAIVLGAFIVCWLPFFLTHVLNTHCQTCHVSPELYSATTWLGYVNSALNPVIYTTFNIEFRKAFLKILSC
Sequence of Kappa-type opioid receptor (P41145 whole entry): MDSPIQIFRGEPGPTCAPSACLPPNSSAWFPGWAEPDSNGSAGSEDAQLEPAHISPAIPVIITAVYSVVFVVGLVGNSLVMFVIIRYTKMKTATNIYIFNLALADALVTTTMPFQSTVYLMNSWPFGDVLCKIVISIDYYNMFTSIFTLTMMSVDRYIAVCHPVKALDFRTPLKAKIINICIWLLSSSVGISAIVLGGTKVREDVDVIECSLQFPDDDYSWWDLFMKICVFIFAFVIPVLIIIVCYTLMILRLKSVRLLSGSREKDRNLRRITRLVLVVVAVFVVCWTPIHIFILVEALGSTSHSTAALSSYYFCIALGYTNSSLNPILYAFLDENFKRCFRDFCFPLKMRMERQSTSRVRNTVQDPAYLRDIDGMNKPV

Row | Compound | IC50 [1] | IC50 [2] | Ki [2] | IC50 (D(3) dopamine receptor; cho) | IC50 [3] | IC50 (Cytochrome P450 3A4) | Ki (Cytochrome P450 3A4) | IC50 [4] | Ki [4] | IC50 (D(3) dopamine receptor; read-out: IC50) | Ki (D(3) dopamine receptor; read-out: Ki) | Ki ([4]; read-out: Ki) | Ki [1] | IC50 (D(3) dopamine receptor; cho, read-out: IC50) | Ki (D(3) dopamine receptor; cho, read-out: Ki) | Ki (D(3) dopamine receptor; cho)
1 | O=C(c1ccccc1C(F)(F)F)N1CCC(Cc2ccccc2)CC1 | Not Active | Not Active | Not Active | Not Active | Not Active | Not Active | Not Active | Not Active | Not Active |  |  |  |  |  |  | 
2 | O=C/C=C/c1ccccc1 | Not Active | Not Active | Not Active | Not Active |  | Not Active | Not Active | Not Active | Not Active |  |  |  |  |  |  | 
3 | Nc1ccc2c3c(cccc13)C(=O)NC2=O | Not Active | Not Active | Not Active | Not Active | Not Active | Not Active | Not Active | Not Active | Not Active |  |  |  |  |  |  | 
4 | COc1ccc(C(=O)N2CCCC2=O)cc1 | Not Active | Not Active | Not Active | Not Active | Not Active | Not Active | Not Active | Not Active | Not Active |  |  |  |  |  |  | 
5 | O=c1cnn([C@@H]2O[C@H](CO)[C@@H](O)[C@H]2O)c(=O)[nH]1 [6-AZAURIDINE] | Not Active | Not Active | Not Active | Not Active | Not Active | Not Active | Not Active | Not Active | Not Active |  |  |  |  |  |  | 
6 | CC[C@H](C)[C@H]1O[C@]2(C=C[C@@H]1C)C[C@@H]1C[C@@H](C/C=C(\C)[C@@H](O[C@H]3C[C@H](OC)[C@@H](O[C@H]4C[C@H](OC)[C@@H](O)[C@H](C)O4)[C@H](C)O3)[C@@H](C)/C=C/C=C3\CO[C@@H]4[C@H](O)C(C)=C[C@@H](C(=O)O1)[C@]34O)O2.CO[C@H]1C[C@H](O[C@H]2[C@H](C)O[C@@H](O[C@@H]3/C(C)=C/C[C@@H]4C[C@@H](C[C@]5(C=C[C@H](C)[C@@H](C(C)C)O5)O4)OC(=O)[C@@H]4C=C(C)[C@@H](O)[C@H]5OC/C(=C\C=C\[C@@H]3C)[C@]54O)C[C@@H]2OC)O[C@@H](C)[C@@H]1O [ABAMECTIN] | Not Active | Not Active | Not Active | Not Active | Not Active | Not Active | Not Active | Not Active | Not Active |  |  |  |  |  |  | 
7 | NCCCC(O)(P(=O)(O)O)P(=O)(O)O [ALENDRONIC ACID] | Not Active | Not Active | Not Active | Not Active | Not Active |  |  | Not Active | Not Active |  |  |  |  |  |  | 
8 | Cc1nnc2n1-c1ccc(Cl)cc1C(c1ccccc1)=NC2 [ALPRAZOLAM] | Not Active | Not Active | Not Active | Not Active |  | Not Active | Not Active | Not Active | Not Active |  |  |  |  |  |  | 
9 | Cn1c(=O)c2[nH]cnc2n(C)c1=O.Cn1c(=O)c2[nH]cnc2n(C)c1=O.NCCN [AMINOPHYLLINE] | Not Active | Not Active | Not Active | Not Active | Not Active | Not Active | Not Active | Not Active | Not Active |  |  |  |  |  |  | 
10 | CCC1(CCC(C)C)C(=O)NC(=O)NC1=O [AMOBARBITAL] | Not Active | Not Active | Not Active | Not Active | Not Active | Not Active | Not Active | Not Active | Not Active |  |  |  |  |  |  | 
11 | CC1(C)S[C@@H]2[C@H](NC(=O)[C@H](N)c3ccccc3)C(=O)N2[C@H]1C(=O)O [AMPICILLIN] | Not Active | Not Active | Not Active | Not Active | Not Active | Not Active | Not Active | Not Active | Not Active |  |  |  |  |  |  | 
12 | COc1ccc(C2C(=O)c3ccccc3C2=O)cc1 [ANISINDIONE] | Not Active | Not Active | Not Active | Not Active | Not Active | Not Active | Not Active | Not Active | Not Active |  |  |  |  |  |  | 
13 | CN1[C@@H]2CC[C@H]1C[C@@H](OC(=O)C(CO)c1ccccc1)C2 (some centres not stated) [ATROPINE] | Not Active | Not Active | Not Active | Not Active | Not Active |  |  | Not Active | Not Active |  |  |  |  |  |  | 
14 | CN/C(=N\CCSCc1nc[nH]c1C)NC#N [CIMETIDINE] | Not Active | Not Active | Not Active | Not Active | Not Active |  |  | Not Active | Not Active |  |  |  |  |  |  | 
15 | COc1cc(N)c(Cl)cc1C(=O)NC1CCN(CCCOc2ccc(F)cc2)CC1OC (configuration not stated) [CISAPRIDE] | Not Active | Not Active | Not Active |  | Not Active |  |  | Not Active | Not Active | 144 nM | 49 nM |  |  |  |  | 
16 | C[C@@H]1C[C@H]2[C@@H]3CCC4=CC(=O)C=C[C@]4(C)[C@@]3(F)[C@@H](O)C[C@]2(C)[C@@]1(O)C(=O)CO [DEXAMETHASONE] | Not Active | Not Active | Not Active | Not Active | Not Active |  |  | Not Active | Not Active |  |  |  |  |  |  | 

Row | Compound | IC50 [1] | IC50 [2] | Ki [2] | IC50 (D(3) dopamine receptor; cho) | IC50 [3] | IC50 (Cytochrome P450 3A4) | Ki (Cytochrome P450 3A4) | IC50 [4] | Ki [4] | IC50 (D(3) dopamine receptor; read-out: IC50) | Ki (D(3) dopamine receptor; read-out: Ki) | Ki ([4]; read-out: Ki) | Ki [1] | IC50 (D(3) dopamine receptor; cho, read-out: IC50) | Ki (D(3) dopamine receptor; cho, read-out: Ki) | Ki (D(3) dopamine receptor; cho)
17 | C[C@@H](CO)NC(=O)[C@@H]1C=C2c3cccc4[nH]cc(c34)C[C@H]2N(C)C1 [ERGONOVINE] | Not Active | Not Active | Not Active |  |  | Not Active | Not Active |  |  | 567 nM | 193 nM | 1230 nM |  |  |  | 
18 | COc1cc([C@@H]2c3cc4c(cc3[C@@H](O[C@@H]3O[C@@H]5CO[C@@H](C)O[C@H]5[C@H](O)[C@H]3O)[C@H]3COC(=O)[C@H]23)OCO4)cc(OC)c1O [ETOPOSIDE] | Not Active | Not Active | Not Active | Not Active | Not Active |  |  | Not Active | Not Active |  |  |  |  |  |  | 
19 | COc1ccc2c3c1O[C@H]1C[C@@H](O)C=C[C@@]31CCN(C)C2 [GALANTAMINE] | Not Active | Not Active | Not Active | Not Active | Not Active |  |  | Not Active | Not Active |  |  |  |  |  |  | 
20 | CC(C)=CCC/C(C)=C/CO [GERANIOL] | Not Active | Not Active | Not Active | Not Active | Not Active |  |  | Not Active | Not Active |  |  |  |  |  |  | 
21 | CC(=O)[C@@]1(O)CC[C@H]2[C@@H]3CCC4=CC(=O)CC[C@]4(C)[C@H]3CC[C@@]21C [HYDROXYPROGESTERONE] | Not Active | Not Active | Not Active | Not Active | Not Active |  |  | Not Active | Not Active |  |  |  |  |  |  | 
22 | COC1=C(OC)C(=O)C(CCCCCCCCCCO)=C(C)C1=O [IDEBENONE] | Not Active | Not Active | Not Active | Not Active | Not Active |  |  | Not Active | Not Active |  |  |  |  |  |  | 
23 | C[n+]1ccc(-c2cc[n+](C)cc2)cc1.[Cl-].[Cl-] [PARAQUAT DICHLORIDE] | Not Active | Not Active | Not Active | Not Active |  | Not Active | Not Active | Not Active | Not Active |  |  |  |  |  |  | 
24 | CC(C)NCC(O)COc1cccc2[nH]ccc12 (configuration not stated) [PINDOLOL] | Not Active | Not Active | Not Active | Not Active | Not Active |  |  | Not Active | Not Active |  |  |  |  |  |  | 
25 | CCCNCC(O)COc1ccccc1C(=O)CCc1ccccc1 (configuration not stated) [PROPAFENONE] | Not Active | Not Active | Not Active | Not Active | Not Active |  |  | Not Active | Not Active |  |  |  |  |  |  | 
26 | CC(C)c1cccc(C(C)C)c1O [PROPOFOL] | Not Active | Not Active | Not Active | Not Active |  |  |  | Not Active | Not Active |  |  |  |  |  |  | 
27 | C[C@@H]1O[C@@H](O[C@@H]2C=C3CC[C@@H]4[C@H](CC[C@]5(C)[C@@H](c6ccc(=O)oc6)CC[C@]45O)[C@@]3(C)CC2)[C@H](O)[C@H](O)[C@H]1O [PROSCILLARIDIN] | Not Active | Not Active | Not Active | Not Active |  | Not Active | Not Active | Not Active | Not Active |  |  |  |  |  |  | 
28 | AURANOFIN | Not Active | Not Active | Not Active |  |  | Not Active | Not Active | Not Active | Not Active |  |  |  | Not Active | 659 nM | 224 nM | 
29 | GADOPENTETATE DIMEGLUMINE | Not Active | Not Active | Not Active | Not Active |  | Not Active | Not Active | Not Active | Not Active |  |  |  | Not Active |  |  | Not Active
30 | GENTAMICIN | Not Active | Not Active | Not Active | Not Active |  | Not Active | Not Active | Not Active | Not Active |  |  |  | Not Active |  |  | Not Active
31 | GRAMICIDIN | Not Active | Not Active | Not Active | Not Active |  | Not Active | Not Active | Not Active | Not Active |  |  |  | Not Active |  |  | Not Active
32 | NYSTATIN | Not Active | Not Active | Not Active | Not Active |  | Not Active | Not Active | Not Active | Not Active |  |  |  | Not Active |  |  | Not Active
